Holding throughout (type): cell-based
One assay concerns MIAPACA2 cells. As to the kind of experiment: MTT cell proliferation assay in MIAPACA2 cells. Particulars: 0.01, 0.03, 0.1, 0.5, 1, 5 and 10 μM, 6 days, FIG. 11. The method, then:
Assessment of the cell proliferation effects of WDR5 degraders XF056-132, XF056-173 and XF067-67 in MIAPACA2 cells (FIG. 11). MIAPACA2 cells were treated with DMSO or indicated compounds at 0.01 μM, 0.03 μM, 0.1 μM, 0.5 μM, 1 μM, 5 μM, and 10 μM for 6 days. MTT assay was used for detecting cell proliferation effects.
(§1) MIAPACA2 and Hela cells were cultured in DMEM supplemented with 10% FBS and 1% Penicillin/Streptomycin.
A general note: Tetrazolium assays rely on reduction of a dye to a coloured formazan, in cell work by metabolically active cells.

Assay [1] concerns the target T1, WDR5 (Homo sapiens, UniProt P61964). As to the kind of experiment: Screening of putative WDR5 degraders by Western blot in MV4;11 and/or MIAPACA2 cells. Also noted: After WDR5 degrader treatment, cells were collected and lysed; endogenous in cells; host or cells: MV4;11 and/or MIAPACA2. The note with it: summary of screening, FIGS. 6-10. In a few lines:
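MV4;11 (1×10^6/well) or MIAPACA2 (1×10^5/well) cells treated 18 h with compound at paired doses between 0.1 and 10 μM, DMSO as control. Total lysates immunoblotted for WDR5 with vinculin, tubulin or GAPDH loading controls; fluorescent secondary detection.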
For orientation: In western blotting, separated proteins are transferred to a membrane and probed.

In assay [2] the target is T1, WDR5. In words: Western blot of WDR5 protein levels in MIAPACA2 cells. Set-up: After WDR5 degrader treatment, cells were collected and lysed; endogenous in cells; host or cells: MV4;11 and/or MIAPACA2. Particulars: 18 h. The method, then:
MIAPACA2 cells were treated with DMSO or indicated compounds at 0.1 μM, 0.5 μM, 1 μM, 5 μM, and 10 μM for 18 hours.
MIAPACA2 cells were treated with DMSO or indicated compounds at 0.5 μM and 1.0 μM for 18 hours.
MIAPACA2 cells were treated with DMSO or indicated compounds at 0.1 μM and 0.5 μM for 18 hours.
MIAPACA2 cells were treated with DMSO or indicated compounds at 0.5 μM and 1.0 μM or at 1.0 μM and 10 μM for 18 hours.
as §1
WDR5 degraders were dissolved in DMSO and DMSO with no degraders was used as the control. 1×10^6 MV4;11 cells or 1×10^5 MIAPACA2 or 2×10^5 Hela cells were seeded in 2 mL medium for each well in […].
For prescreening of all the compounds, each test compound was added to the medium at indicated concentrations. After 18 h treatment, cells were collected.
After WDR5 degrader treatment, cells were collected and lysed. Total cell lysates were used for western blot. The following primary antibodies were used: WDR5 (Santa Cruz), vinculin (Cell Signaling Technology), tubulin (Cell Signaling Technology), GAPDH (Santa Cruz). Blots were imaged using fluorescence-labeled secondary antibodies on ChemiDoc™ Imaging Systems.

“Also recorded” adds a separate entry of the source.

As to `Cc1ncsc1-c1ccc(CNC(=O)[C@@H]2C[C@@H](O)CN2C(=O)[C@@H](NC(=O)CNC(=O)c2ccc(F)c(-c3ccc(N4C[C@@H](C)N(C)[C@@H](C)C4)c(NC(=O)c4c[nH]c(=O)cc4C(F)(F)F)c3)c2)C(C)(C)C)cc1` [XF056-132, N-(2′-fluoro-5′-((2-(((S)-1-((2S,4R)-4-hydroxy-2-((4-(4-methylthiazol-5-yl)benzyl)carbamoyl)pyrrolidin-1-yl)-3,3-dimethyl-1-oxobutan-2-yl)amino)-2-oxoethyl)carbamoyl)-4-((3R,5S)-3,4,5-trimethylpiperazin-1-yl)-[1,1′-biphenyl]-3-yl)-6-oxo-4-(trifluoromethyl)-1,6-dihydropyridine-3-carboxamide], the “proliferation of MIAPACA2 cells” value in the assay on MIAPACA2 cells was “significantly decreased the cell proliferation; also recorded: significantly reduced the proliferation of MIAPACA2 cells”. Besides, the “effective degradation of WDR5 in MV4;11 and/or MIAPACA2 cells” value (from here on “effective degradation of WDR5”) on WDR5 [1] is given as “able to effectively degrade WDR5”. Moreover, the “degradation of WDR5” value at WDR5 [2] (MIAPACA2 cells, 0.1 μM and 0.5 μM, FIG. 8A-8C) was “can effectively degrade WDR5 at 0.1 μM and 0.5 μM”.

Turning to `Cc1ncsc1-c1ccc(CNC(=O)[C@@H]2C[C@@H](O)CN2C(=O)[C@@H](NC(=O)CCCCCCCCCNC(=O)c2ccc(-c3ccc(N4C[C@@H](C)N(C)[C@@H](C)C4)c(NC(=O)c4c[nH]c(=O)cc4C(F)(F)F)c3)c(F)c2)C(C)(C)C)cc1` [XF056-173, N-(2′-fluoro-4′-((10-(((S)-1-((2S,4R)-4-hydroxy-2-((4-(4-methylthiazol-5-yl)benzyl)carbamoyl)pyrrolidin-1-yl)-3,3-dimethyl-1-oxobutan-2-yl)amino)-10-oxodecyl)carbamoyl)-4-((3R,5S)-3,4,5-trimethylpiperazin-1-yl)-[1,1′-biphenyl]-3-yl)-6-oxo-4-(trifluoromethyl)-1,6-dihydropyridine-3-carboxamide], the “proliferation of MIAPACA2 cells” value in the assay with MIAPACA2 cells is “significantly decreased the cell proliferation; also recorded: significantly reduced the proliferation of MIAPACA2 cells”. Moreover, at WDR5 [1], the “effective degradation of WDR5” value is “able to effectively degrade WDR5”.

As to `Cc1ncsc1-c1ccc([C@H](C)NC(=O)[C@@H]2C[C@@H](O)CN2C(=O)[C@@H](NC(=O)CCCCCCCCCC(=O)NCCN2CCN(Cc3cccc(-c4ccc(N5CCN(C)CC5)c(NC(=O)c5c[nH]c(=O)cc5C(F)(F)F)c4)c3)CC2)C(C)(C)C)cc1` [XF050-166, N^1-((S)-1-((2S,4R)-4-hydroxy-2-(((S)-1-(4-(4-methylthiazol-5-yl)phenyl)ethyl)carbamoyl)pyrrolidin-1-yl)-3,3-dimethyl-1-oxobutan-2-yl)-N^11-(2-(4-((4′-(4-methylpiperazin-1-yl)-3′-(6-oxo-4-(trifluoromethyl)-1,6-dihydropyridine-3-carboxamido)-[1,1′-biphenyl]-3-yl)methyl)piperazin-1-yl)ethyl)undecanediamide], the “effective degradation of WDR5” value at WDR5 [1] is on record as “able to effectively degrade WDR5”. The WDR5 degradation effects entry on WDR5 [2] (MIAPACA2 cells, 0.5 μM and 1.0 μM, FIG. 7) was “better WDR5 degradation effects than XF048-132 and XF048-140”.

As to `CN1CCN(c2ccc(-c3cccc(CN4CCN(CCNC(=O)CCCCCCCNc5cccc6c5C(=O)N(C5CCC(=O)NC5=O)C6=O)CC4)c3)cc2NC(=O)c2c[nH]c(=O)cc2C(F)(F)F)CC1` (stereo not drawn) [XF048-140, N-(3′-((4-(2-(8-((2-(2,6-dioxopiperidin-3-yl)-1,3-dioxoisoindolin-4-yl)amino)octanamido)ethyl)piperazin-1-yl)methyl)-4-(4-methylpiperazin-1-yl)-[1,1′-biphenyl]-3-yl)-6-oxo-4-(trifluoromethyl)-1,6-dihydropyridine-3-carboxamide], the “effective degradation of WDR5” value on WDR5 [1] is on record as “able to effectively degrade WDR5”. Besides, the “reduction of WDR5 protein levels, concentration-dependent” value at WDR5 [2] (MIAPACA2 cells, 0.1, 0.5, 1, 5 and 10 μM, FIG. 5) was “reduced WDR5 protein levels”.
